The results in this text go back to patent US8067452B2, “3-hydroxyisothiazole-4-carboxamidine derivatives as CHK2 inhibitors” (Valeant Pharmaceuticals International, priority 2007, dated 2011).

In this assay the target is T1, Chk2 (Homo sapiens, UniProt O96017).
T1 construct: GST; purchased Upstate (Lake Placid, N.Y.)
T1 sequence (O96017 whole entry): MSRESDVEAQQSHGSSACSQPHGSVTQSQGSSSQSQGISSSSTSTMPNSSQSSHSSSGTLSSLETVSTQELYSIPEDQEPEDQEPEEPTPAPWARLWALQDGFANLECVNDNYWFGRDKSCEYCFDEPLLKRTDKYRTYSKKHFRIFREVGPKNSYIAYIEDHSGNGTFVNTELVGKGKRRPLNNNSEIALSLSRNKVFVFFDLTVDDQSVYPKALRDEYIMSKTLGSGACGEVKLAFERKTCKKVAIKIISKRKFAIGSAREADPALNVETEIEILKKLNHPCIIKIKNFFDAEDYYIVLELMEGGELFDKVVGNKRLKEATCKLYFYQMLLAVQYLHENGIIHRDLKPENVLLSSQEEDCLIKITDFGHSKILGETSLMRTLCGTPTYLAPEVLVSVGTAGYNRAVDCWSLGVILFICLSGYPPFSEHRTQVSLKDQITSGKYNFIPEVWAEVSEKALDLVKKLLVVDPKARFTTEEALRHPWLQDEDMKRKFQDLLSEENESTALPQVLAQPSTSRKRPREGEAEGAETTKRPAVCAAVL
Description: In vitro kinase assay with recombinant Chk2 (MBP phosphorylation, [γ-33P]ATP). The assay is classed as biochemical. To be noted: recombinant human GST-Chk2 10 nM, 25 μM MBP, 100 μM ATP, 30 min at 24° C.; read-out: The enzymatic IC50 values of compounds against Chk2. The protocol:
In vitro kinase assays with recombinant Chk1 and Chk2. Recombinant human GST-Chk1 and GST-Chk2 proteins were purchased from Upstate (Lake Placid, N.Y.). Assay conditions were based on published protocols with minor modifications. Briefly, 10 nM of Chk1 or Chk2 was used to phosphorylate 25 μM myelin basic protein (MBP) (Invitrogen, Carlsbad, Calif.) This reaction took place in a buffer that contained 8 mM MOPS, pH 7.2, 10 mM β-glycerol phosphate, 1.5 mM EGTA, 0.4 mM EDTA, 0.4 mM sodium orthovanadate, 100 μM ATP, 1 μCi [γ-^33P] ATP, 15 mM MgCl2, 0.4 mM DTT, 0.006% Brij-35, 1% glycerol and 0.2 mg/ml BSA in a final volume of 25 μl. The reaction was incubated for 30 minutes at 24° C. and was terminated by adding 100 μl of 1% trichloroacetic acid. The quenched solution was incubated for 5 min at room temperature to allow the protein to precipitate and then subsequently transferred to a 96-well white GF/B filter plate (Perkin Elmer, Wellesley, Mass.) using a Perkin Elmer Filtermate Universal Harvester. The filter plate was washed ten times with water and once with ethanol before completely drying. 40 μL of Microscint™ (Perkin Elmer, Wellesley, Mass.) was added to each well and the radioactivity that was incorporated into MBP was counted using a Perkin Elmer TopCount. The compound was titrated and its IC50 values against both Chk1 and Chk2 were determined. The reported IC50 values are the average of at least two sets of data. To determine the competitive nature of the compound with ATP, the compound concentration was varied from 0-200 nM while ATP was varied from 50-500 μM in the assays to assess the ATP effect on inhibition. Prism 4.0 software (GraphPad, San Diego Calif.) was used for the IC50 determination and Lineweaver-Burk kinetic analysis.
For the compound `N=C(NCCO)c1c(O)nsc1Nc1ccc(Nc2ccc(Br)cc2)cc1` [Entry 3], the IC50 (in general, the concentration at which inhibition is half-maximal) is 1 to 500 nM.
On to `N=C(NCCCCO)c1c(O)nsc1Nc1ccc(Nc2ccc(Br)cc2)cc1` [Entry 5], for which the IC50 was 1 to 500 nM.
As for `CC(C)NC(=N)c1c(O)nsc1Nc1ccc(Nc2ccc(Br)cc2)cc1` [Entry 1], the IC50 lay in the range of 1 to 500 nM.
For `N=C(NCC1CCCCC1)c1c(O)nsc1Nc1ccc(Nc2ccc(Br)cc2)cc1` [Entry 4] the value was 1 to 500 nM.
For `N=C(NCC1CCCCC1)c1c(O)nsc1Nc1ccc(Nc2ccccc2)cc1` [Entry 10] the value was 1000 to 2000 nM.
Turning to `N=C(NCc1cccc2ccccc12)c1c(O)nsc1Nc1ccc(Nc2ccccc2)cc1` [Entry 13], the IC50 lay within 1 to 500 nM.
In the case of `CC(CO)NC(=N)c1c(O)nsc1Nc1ccc(Nc2ccccc2)cc1` (stereo not shown) [Entry 8], the IC50 is 1 to 500 nM.
Consider `N=C(NCCCCO)c1c(O)nsc1Nc1ccc(Nc2ccccc2)cc1` [Entry 11], for which the half-inhibitory concentration (IC50) fell in the range of 1000 to 2000 nM.
With `CC(C)NC(=N)c1c(O)nsc1Nc1ccc(Nc2ccccc2)cc1` [Entry 7], the IC50 is 1 to 500 nM.
On to `N=C(NCC(O)CO)c1c(O)nsc1Nc1ccc(Nc2ccc(Br)cc2)cc1` (stereo not shown) [Entry 6], for which the IC50 lay within 1 to 500 nM.
On to `N=C(NCC(O)CO)c1c(O)nsc1Nc1ccc(Nc2ccccc2)cc1` (stereo not shown) [Entry 12], for which the IC50 lay within 500 to 1000 nM.
As for `CC(CO)NC(=N)c1c(O)nsc1Nc1ccc(Nc2ccc(Br)cc2)cc1` (stereo not shown) [Entry 2], the IC50 was in the range of 1 to 500 nM.
As for `N=C(NCCO)c1c(O)nsc1Nc1ccc(Nc2ccccc2)cc1` [Entry 9], the IC50 was 500 to 1000 nM.
